Results published in article PMC6691805 (Journal of Enzyme Inhibition and Medicinal Chemistry, 2019).

Biological target: T1, 17β-HSD1 (Homo sapiens, UniProt P14061)
T1 sequence (P14061 1-328): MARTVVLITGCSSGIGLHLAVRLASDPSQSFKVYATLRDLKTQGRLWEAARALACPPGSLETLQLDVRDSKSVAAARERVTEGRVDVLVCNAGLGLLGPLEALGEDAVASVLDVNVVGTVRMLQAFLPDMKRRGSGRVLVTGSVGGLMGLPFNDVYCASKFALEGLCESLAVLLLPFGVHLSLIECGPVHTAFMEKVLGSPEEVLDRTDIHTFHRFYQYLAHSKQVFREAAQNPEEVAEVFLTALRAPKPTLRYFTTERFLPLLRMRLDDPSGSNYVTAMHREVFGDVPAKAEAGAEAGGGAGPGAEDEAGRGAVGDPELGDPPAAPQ
Assay type: biochemical

cofactor preference in terms of RIP values, favouring the NADPH bound enzyme (cofactor preference for NADPH in terms of RIP values): 2–11 fold
17β-HSD1 inhibitory effect (in words) (evaluation of potentials obtained with NADPH): potent inhibitors
Structure (SMILES): COC(=O)CO[C@@H]1CC(=O)[C@@]2(C)CC[C@@H]3c4ccc(OCc5ccccc5)cc4CC[C@H]3[C@H]12 [Compound 22, 3-Benzyloxy-15β-(2’-methoxy-2’-oxoethoxy)-estra-1,3,5(10)-trien-17-one]
